Measured values: patent US20240217951A1, “PCSK9 INHIBITORS AND METHODS OF USE THEREOF” (AstraZeneca AB, priority 2022, published 2024)

How the values were obtained:
[1] = biological target: T1, potassium ion channel hERG (human Ether-á-go-go-Related Gene) (Homo sapiens, UniProt Q12809); experiment: Assay 5 - hERG assay (SyncroPatch 384PE patch clamp, CHO cells); format: cell-based; conditions: geometric mean; CHO cells over-expressing hERG; read-out: Assay 5 (hERG Hu CHO IF EPh CR-Syncro) GMean IC50
T1 construct: expressed in transfected cells; host or cells: Chinese hamster ovary K1 (CHO)
T1 sequence (Q12809 whole entry): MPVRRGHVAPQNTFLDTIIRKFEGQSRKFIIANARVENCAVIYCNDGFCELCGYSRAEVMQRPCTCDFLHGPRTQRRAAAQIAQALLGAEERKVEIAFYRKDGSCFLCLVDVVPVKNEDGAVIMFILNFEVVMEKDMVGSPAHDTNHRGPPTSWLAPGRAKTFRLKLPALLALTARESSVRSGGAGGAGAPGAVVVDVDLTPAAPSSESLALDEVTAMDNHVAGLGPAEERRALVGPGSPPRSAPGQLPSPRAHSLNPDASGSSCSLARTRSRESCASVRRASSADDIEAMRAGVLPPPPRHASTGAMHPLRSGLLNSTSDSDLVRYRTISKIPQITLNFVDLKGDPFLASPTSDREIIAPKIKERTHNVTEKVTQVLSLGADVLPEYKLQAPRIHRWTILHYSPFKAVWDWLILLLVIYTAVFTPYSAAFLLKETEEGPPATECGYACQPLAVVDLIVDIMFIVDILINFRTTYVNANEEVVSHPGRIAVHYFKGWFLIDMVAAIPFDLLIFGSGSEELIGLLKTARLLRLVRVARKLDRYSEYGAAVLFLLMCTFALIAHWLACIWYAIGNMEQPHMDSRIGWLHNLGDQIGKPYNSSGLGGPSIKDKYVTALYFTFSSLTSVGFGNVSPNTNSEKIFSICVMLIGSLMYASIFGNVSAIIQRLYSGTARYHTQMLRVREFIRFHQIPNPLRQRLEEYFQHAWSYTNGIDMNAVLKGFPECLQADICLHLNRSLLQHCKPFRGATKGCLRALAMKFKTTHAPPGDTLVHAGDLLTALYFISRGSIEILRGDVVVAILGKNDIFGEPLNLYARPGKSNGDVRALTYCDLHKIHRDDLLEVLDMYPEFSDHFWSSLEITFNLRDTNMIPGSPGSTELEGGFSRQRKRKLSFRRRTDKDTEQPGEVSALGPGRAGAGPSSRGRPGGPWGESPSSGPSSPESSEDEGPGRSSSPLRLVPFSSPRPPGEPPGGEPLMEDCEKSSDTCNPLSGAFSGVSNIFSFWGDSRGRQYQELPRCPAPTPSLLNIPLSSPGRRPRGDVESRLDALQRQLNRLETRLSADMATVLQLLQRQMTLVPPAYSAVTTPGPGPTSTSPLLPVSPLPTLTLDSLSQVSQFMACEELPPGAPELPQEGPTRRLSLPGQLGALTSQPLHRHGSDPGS
How it was run: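 Automated high-throughput patch clamp on CHO-K1 cells overexpressing hERG at room temperature, KF/KCl internal with escin, NMDG-containing external at pH 7.4. Six-point cumulative compound addition, 0.33% DMSO final; wells kept only with seal >30 MΩ, Z′ >0.4 and current >0.2 nA.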

[2] = biological target: GSK3β (Glycogen synthase kinase-3 beta) (Homo sapiens, UniProt P49841); experiment: Assay 6 - GSK3β assay (ThermoFisher Z-Lyte); format: biochemical; conditions: geometric mean; ATP Conc: 10 μM; read-out: Assay 6 (GSK3β FRET-Z-Lyte CR) GMean IC50 (μM) ATP Conc: 10
GSK3β (Glycogen synthase kinase-3 beta), sequence (P49841 whole entry): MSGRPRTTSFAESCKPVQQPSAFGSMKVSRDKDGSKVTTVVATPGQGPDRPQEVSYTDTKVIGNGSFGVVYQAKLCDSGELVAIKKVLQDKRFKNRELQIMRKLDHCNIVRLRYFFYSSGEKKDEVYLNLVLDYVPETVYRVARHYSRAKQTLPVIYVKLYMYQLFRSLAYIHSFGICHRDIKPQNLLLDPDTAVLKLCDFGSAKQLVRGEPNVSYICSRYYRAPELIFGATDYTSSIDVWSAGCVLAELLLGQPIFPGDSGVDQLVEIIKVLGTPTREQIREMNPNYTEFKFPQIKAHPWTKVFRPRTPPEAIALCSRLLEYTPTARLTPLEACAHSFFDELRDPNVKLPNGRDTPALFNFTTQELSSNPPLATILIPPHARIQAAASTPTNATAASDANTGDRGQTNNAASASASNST
How it was run: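 Z-Lyte fluorescence kinase assay with 0.22-0.92 ng GSK3β and 2 μM Ser/Thr 09 peptide in 50 mM HEPES pH 7.5, 10 mM MgCl2, 1 mM EGTA, 0.01% BRIJ-35. Kinase reaction 60 min at room temperature, then 60 min development. 10-point 3-fold titration from 10 μM in 1% DMSO, fitted to a sigmoidal dose-response curve.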

PCSK9 [3] = biological target: T2, PCSK9 (Homo sapiens, UniProt Q8NBP7, G670E/V474I); experiment: biochemical
T2 sequence (Q8NBP7 with tags, fused parts or gaps V474I/G670E): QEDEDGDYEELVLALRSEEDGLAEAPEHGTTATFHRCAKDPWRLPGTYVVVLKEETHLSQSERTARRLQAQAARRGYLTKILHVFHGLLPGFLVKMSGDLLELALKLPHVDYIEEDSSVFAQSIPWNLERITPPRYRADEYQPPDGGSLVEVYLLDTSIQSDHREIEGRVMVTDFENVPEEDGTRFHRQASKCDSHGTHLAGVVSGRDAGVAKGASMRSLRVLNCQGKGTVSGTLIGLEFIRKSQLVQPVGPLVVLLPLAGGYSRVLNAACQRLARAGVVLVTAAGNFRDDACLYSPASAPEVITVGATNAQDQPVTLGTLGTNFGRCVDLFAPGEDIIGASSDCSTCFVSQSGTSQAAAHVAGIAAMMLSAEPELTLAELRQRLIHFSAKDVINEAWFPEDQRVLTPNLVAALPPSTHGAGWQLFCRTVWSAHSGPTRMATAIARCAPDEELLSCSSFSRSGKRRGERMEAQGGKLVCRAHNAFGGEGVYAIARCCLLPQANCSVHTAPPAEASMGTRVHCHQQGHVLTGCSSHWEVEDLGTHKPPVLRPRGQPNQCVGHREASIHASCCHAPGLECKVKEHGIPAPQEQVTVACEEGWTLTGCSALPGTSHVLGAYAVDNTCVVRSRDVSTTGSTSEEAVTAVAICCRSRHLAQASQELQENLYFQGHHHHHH

PCSK9 [4] = biological target: T2, PCSK9; experiment: Assay 3 - PCSK9 LDL-C uptake assay in HepG2 cells; format: cell-based; design: TEV cleavage site (C); His6 (C); host or cells: added to HepG2 cells (ATCC #HB-8065); conditions: 125 nM PCSK9, pHrodo Red-LDL, read-out: Assay 3 LDL uptake potency
Source text: Assay 3—PCSK9 LDL-C Uptake Assay
This assay measures for PCSK9 antagonist activity based on a test compound's capacity to restore LDL-C-uptake in HepG2 cells. The assay is based on exogenous PCSK9 and LDL-C complexed with a pH-sensitive dye. Outside the cells, at neutral pH, the pHrodo Red-LDL is dimly fluorescent but upon LDLR mediated endocytosis it fluoresces brightly. PCSK9 traffics the LDLR to intracellular degradation and reduces uptake of LDL-C. Inhibition of PCSK9 reduces LDLR degradation and the increased LDL-C uptake is quantified by fluorescence microscopy.
Preparation of Assay Reagents
Cell medium: MEM supplemented with 10% FBS, 1×NEAA and Sodium Pyruvate Assay medium: OptiMem supplemented with penicillin/streptomycin
Cells: HepG2 (ATCC #HB-8065)
Step by Step Protocol for Running the Assay:
• 1. Cryopreserved HepG2 cells were thawed in assay medium and centrifuged for 5 min at 250 g. Supernatant was discarded and the cell pellet resuspended in cell medium and counted with a Nucleocounter. Cells were again centrifuged 5 min at 250 g and the pellet was resuspended to 500000 cells/mL in assay medium. • 2. 20 μL of above cell mix was dispensed into black pclear TC treated 384 well plates with Multidrop Combi and left at room temperature for 20 minutes. • 3. Plates were incubated at 37° C., 5% CO2 for 24 h
• 1. Test compounds were prepared in concentration response in DMSO with a half-log dilution factor in DMSO in Echo 384 LDV plates starting at 10 mM. • 2. 30 nL of above test compounds were dispensed with Echo 655 to cells for a top concentration of 10 μM • 3. 10 μL PCSK9 in assay medium was dispensed to cells with Multidrop Combi for 125 nM final concentration in the wells. • 4. Plates were incubated at 37° C., 5% CO2 for 24 h
• 1. 10 μL pHrodo Red-LDL in assay medium was dispensed to cells with Multidrop Combi for 6 μg/mL • 2. Plates were incubated at 37° C., 5% CO2 and imaged with the Incucyte S3 after 4 h and 24 h
Image data was processed using Incucyte 2021, a software to identify cells and red fluorescent intensity. Screener was used to further process data. Data was normalized as % effect of the signal between median values of the on-plate controls of DMSO and 100 nM Evolocumab according to the formula % effect=−100*(x−DMSO)/(Evolocumab−DMSO) where x equals the measured signal. Concentration response data of the normalized values were fitted using a four-parameter logistic fit.

Compound | IC50 [1] [nM] | IC50 [2] [µM] | IC50 (PCSK9 [3]) [nM] | EC50 (PCSK9 [4]) [nM]
Cc1cnc(N[C@H]2CC[C@H](Nc3ccc(-n4cccc(C(F)(F)F)c4=O)cn3)C2)cn1 [Example 147, 6′-(((1S,3S)-3-((5-Methylpyrazin-2-yl)amino)cyclopentyl)amino)-3-(trifluoromethyl)-2H-[1,3′-bipyridin]-2-one] | 16600 | > 10 | 5.2 | 100
Cc1cnc(N[C@H]2CC[C@H](Nc3ccc(-n4cc(-c5cn[nH]c5)ccc4=O)cn3)C2)cn1 [Example 207, 6′-(((1S,3S)-3-((5-Methylpyrazin-2-yl)amino)cyclopentyl)amino)-5-(1H-pyrazol-4-yl)-2H-[1,3′-bipyridin]-2-one] | > 40100 | > 10 | 8.6 | 400
Cc1cnc(N[C@H]2CC[C@H](Nc3ccc(-n4cc(Cl)ccc4=O)cn3)C2)cn1 [Example 43, 5-Chloro-6′-(((1S,3S)-3-((5-methylpyrazin-2-yl)amino)cyclopentyl)amino)-2H-[1,3′-bipyridin]-2-one] | > 40000 | > 10 | 22 | 700
Cc1ncc(N[C@H]2CC[C@H](Nc3ccc(-n4cc(C(=O)O)ccc4=O)cn3)C2)nc1C [Example 14, 6′-(((1S,3S)-3-((5,6-Dimethylpyrazin-2-yl)amino)cyclopentyl)amino)-2-oxo-2H-[1,3′-bipyridine]-5-carboxylic acid] | > 40000 | > 10 | 52 | 200
COc1cccn(-c2ccc(N[C@H]3CC[C@H](Nc4cnc(Cl)cn4)C3)nc2)c1=O [Example 13, 6′-(((1S,3S)-3-((5-Chloropyrazin-2-yl)amino)cyclopentyl)amino)-3-methoxy-2H-[1,3′-bipyridin]-2-one] | 35600 | > 10 | 4 | 200
Cc1ncc(N[C@H]2CC[C@H](Nc3ccc(-n4cc(-c5nnn[nH]5)ccc4=O)cn3)C2)nc1C [Example 176, 6′-(((1S,3S)-3-((5,6-Dimethylpyrazin-2-yl)amino)cyclopentyl)amino)-5-(1H-tetrazol-5-yl)-2H-[1,3′-bipyridin]-2-one] | > 40100 | > 10 | 12 | 100
Cc1cnc(N[C@H]2CC[C@H](Nc3ccc(-n4cc(CS(C)(=O)=O)ccc4=O)cn3)C2)cn1 [Example 259, 6′-(((1S,3S)-3-((5-Methylpyrazin-2-yl)amino)cyclopentyl)amino)-5-((methylsulfonyl)methyl)-2H-[1,3′-bipyridin]-2-one] | > 40100 | > 10 | 43 | > 600
Cc1ncc(N[C@H]2CC[C@H](Nc3ccc(-n4cccc(C#N)c4=O)cn3)C2)nc1C [Example 23, 6′-(((1S,3S)-3-((5,6-Dimethylpyrazin-2-yl)amino)cyclopentyl)amino)-2-oxo-2H-[1,3′-bipyridine]-3-carbonitrile] | 35900 | > 10 | 8.8 | 700
COc1cccn(-c2ccc(N[C@H]3CC[C@H](Nc4cnc(C)cn4)C3)nc2)c1=O (relative stereo) [Example 172, rel-3-Methoxy-6′-(((1R,3R)-3-((5-methylpyrazin-2-yl)amino)cyclopentyl)amino)-2H-[1,3′-bipyridin]-2-one] | > 40100 | 3.7 | 5.3 | 100
N#Cc1cccn(-c2ccc(N[C@H]3CC[C@H](Nc4cnc(C5CC5)cn4)C3)nc2)c1=O [Example 104, 6′-(((1S,3S)-3-((5-Cyclopropylpyrazin-2-yl)amino)cyclopentyl)amino)-2-oxo-2H-[1,3′-bipyridine]-3-carbonitrile] | 24200 | > 10 | 5.8 | 500
